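GI50 is the concentration that inhibits growth by half. TGI: total growth inhibition.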
Key:
Test in all cases: NCI-60 cell line screen, 384-well format
[1] = tested on: UACC-257 melanoma
[2] = tested on: ACHN renal
[3] = tested on: A549 NSCLC
[4] = tested on: HOP-62 NSCLC
[5] = tested on: DU-145 prostate
[6] = tested on: LOX IMVI melanoma
[7] = tested on: SK-OV-3 ovarian
[8] = tested on: BT-549 breast
[9] = tested on: NCI/ADR-RES ovarian
[10] = tested on: PC-3 prostate
[11] = tested on: OVCAR-3 ovarian
[12] = tested on: SF-295 CNS
[13] = tested on: MDA-MB-468 breast
[14] = tested on: NCI-H522 lung
[15] = tested on: K-562 leukemia
[16] = tested on: COLO 205 colon
[17] = tested on: CCRF-CEM leukemia
[18] = tested on: SW-620 colon
[19] = tested on: MCF7 breast
[20] = tested on: HT29 colon
[21] = tested on: OVCAR-4 ovarian
[22] = tested on: MDA-MB-435 melanoma
[23] = tested on: A498 renal
[24] = tested on: HL-60(TB) leukemia
[25] = tested on: SNB-75 CNS
[26] = tested on: NCI-H460 NSCLC
[27] = tested on: SR leukemia
[28] = tested on: HCT-15 colon
[29] = tested on: SNB-19 CNS
[30] = tested on: SK-MEL-28 melanoma
[31] = tested on: U251 glioblastoma
[32] = tested on: SK-MEL-5 melanoma
[33] = tested on: SF-539 CNS
[34] = tested on: NCI-H23 lung
[35] = tested on: SN12C renal
[36] = tested on: HOP-92 NSCLC
[37] = tested on: SF-268 CNS
[38] = tested on: OVCAR-8 ovarian
[39] = tested on: HCC-2998 colon
[40] = tested on: MDA-MB-231 breast
[41] = tested on: OVCAR-5 ovarian
[42] = tested on: HS 578T breast
[43] = tested on: KM12 colon
[44] = tested on: NCI-H322M lung
[45] = tested on: RPMI-8226 leukemia
[46] = tested on: IGROV1 ovarian
[47] = tested on: UACC-62 melanoma
[48] = tested on: RXF 393 renal
[49] = tested on: UO-31 renal
[50] = tested on: CAKI-1 renal
[51] = tested on: TK-10 renal
[52] = tested on: T-47D breast
[53] = tested on: MALME-3M melanoma
[54] = tested on: 786-0 renal
[55] = tested on: MOLT-4 leukemia
[56] = tested on: M14 melanoma
[57] = tested on: NCI-H226 lung
[58] = tested on: EKVX NSCLC

In the case of `O=C(NOC[C@H](O)CO)c1ccc(F)c(F)c1Nc1ccc(I)cc1F`, the GI50 [1] is reported as < 0.01 µM, the TGI [1] is reported as < 0.01 µM and the GI50 [2] is reported as 0.471 µM. For the same compound, the TGI [2] was > 100 µM, the GI50 [3] was 0.0196 µM and the TGI [3] was 25.5 µM. The GI50 [4] was 0.0116 µM, the TGI [4] was > 100 µM and the GI50 [5] was 3.46 µM. For the same compound, the TGI [5] was > 100 µM, the GI50 [6] was < 0.01 µM and the TGI [6] was 0.722 µM. The GI50 [7] was 7.02 µM, the TGI [7] was > 100 µM and the GI50 [8] was 9.53 µM. The TGI [8] was > 100 µM, the GI50 [9] was 6.17 µM and the TGI [9] was 85.1 µM. For the same compound, the GI50 [10] was > 100 µM, the TGI [10] was > 100 µM and the GI50 [11] was 21.8 µM. For the same compound, the TGI [11] was > 100 µM, the GI50 [12] was 22.3 µM and the TGI [12] was > 100 µM. It also gave a GI50 [13] of 0.865 µM, a TGI [13] of 10.9 µM and a GI50 [14] of 15.3 µM. The TGI [14] was > 100 µM, the GI50 [15] was 0.205 µM and the TGI [15] was > 100 µM. The GI50 [16] was < 0.01 µM, the TGI [16] was 0.0136 µM and the GI50 [17] was 39.8 µM. The TGI [17] was > 100 µM, the GI50 [18] was < 0.01 µM and the TGI [18] was > 100 µM. The GI50 [19] was 33.7 µM, the TGI [19] was > 100 µM and the GI50 [20] was < 0.01 µM. The TGI [20] was > 100 µM, the GI50 [21] was 0.0375 µM and the TGI [21] was 65.7 µM. For the same compound, the GI50 [22] was < 0.01 µM, the TGI [22] was > 100 µM and the GI50 [23] was 0.436 µM. The TGI [23] was > 100 µM, the GI50 [24] was < 0.01 µM and the TGI [24] was < 0.01 µM. For the same compound, the GI50 [25] was 2.68 µM, the TGI [25] was 74.2 µM and the GI50 [26] was 0.369 µM. The TGI [26] was > 100 µM, the GI50 [27] was 26.4 µM and the TGI [27] was > 100 µM. For the same compound, the GI50 [28] was 0.749 µM, the TGI [28] was > 100 µM and the GI50 [29] was 0.164 µM. For the same compound, the TGI [29] was > 100 µM, the GI50 [30] was < 0.01 µM and the TGI [30] was < 0.01 µM. The GI50 [31] was 0.577 µM, the TGI [31] was > 100 µM and the GI50 [32] was < 0.01 µM. It also gave a TGI [32] of 45.8 µM, a GI50 [33] of 1.34 µM and a TGI [33] of 65.9 µM. The GI50 [34] was < 0.01 µM, the TGI [34] was 0.391 µM and the GI50 [35] was < 0.01 µM. For the same compound, the TGI [35] was 22.9 µM, the GI50 [36] was 0.0133 µM and the TGI [36] was 0.492 µM. The GI50 [37] was 33.3 µM, the TGI [37] was > 100 µM and the GI50 [38] was 11.8 µM. For the same compound, the TGI [38] was > 100 µM, the GI50 [39] was < 0.01 µM and the TGI [39] was 0.0395 µM. For the same compound, the GI50 [40] was 0.0331 µM, the TGI [40] was 0.934 µM and the GI50 [41] was < 0.01 µM. For the same compound, the TGI [41] was 26.1 µM, the GI50 [42] was 2.73 µM and the TGI [42] was > 100 µM. The GI50 [43] was < 0.01 µM, the TGI [43] was > 100 µM and the GI50 [44] was 0.0373 µM. The TGI [44] was > 100 µM, the GI50 [45] was < 0.01 µM and the TGI [45] was 18 µM. The GI50 [46] was 0.0573 µM, the TGI [46] was 39.1 µM and the GI50 [47] was < 0.01 µM. The TGI [47] was < 0.01 µM, the GI50 [48] was 0.645 µM and the TGI [48] was > 100 µM. The GI50 [49] was 0.506 µM, the TGI [49] was 24.1 µM and the GI50 [50] was 0.0974 µM. The TGI [50] was > 100 µM, the GI50 [51] was 0.689 µM and the TGI [51] was > 100 µM. The GI50 [52] was 11.8 µM, the TGI [52] was > 100 µM and the GI50 [53] was < 0.01 µM. The TGI [53] was < 0.01 µM, the GI50 [54] was 10.4 µM and the TGI [54] was > 100 µM. The GI50 [55] was 28.1 µM, the TGI [55] was 92.7 µM and the GI50 [56] was < 0.01 µM. The TGI [56] was < 0.01 µM, the GI50 [57] was < 0.01 µM and the TGI [57] was 18.1 µM. The GI50 [58] was 0.358 µM and the TGI [58] was > 100 µM.

Source: PubChem BioAssay (NCI)
